From patent US20240325398A1, “COMBINATION THERAPIES” (Infinity Pharmaceuticals, Inc., priority 2014, published 2024)

Tests used:
Experiment in all cases: Combination study, ATPLite 72 h, dose matrix (Synergy Score, CI50)
[1] = system: HH; assay type: cell-based; details: combination with Compound 1
Protocol: The method is described as follows.
Additive effect is CI=1.0. […] Antagonistic effect is CI>1.0.
The Synergy Score is calculated as: […]

[2] = system: Mino; details: combination with Compound 1
[3] = system: Farage; details: combination with Compound 1; Farage; 72 h
[4] = system: U-2932
[5] = system: HBL-1
[6] = system: RPMI-8226; details: combination with Compound 1
[7] = system: SU-DHL-10-epst; details: combination with Compound 1, 72 h
Protocol: (§1) Cells are thawed from a liquid nitrogen preserved state. Once cells have been expanded and divide at their expected doubling times, screening begins. Cells are seeded in growth media in either black 1536-well or 384-well tissue culture treated plates. Cells are then equilibrated in assay plates via centrifugation and placed in incubators attached to the Dosing Modules at 37° C. for 24 hours before treatment. […] These Tzero (To) plates are read using ultra-sensitive luminescence on Envision plate readers (Perkin Elmer). Treated assay plates are incubated with compound for 72 hours. After 72 hours, plates are developed for endpoint analysis using ATPLite. All data points are collected via automated processes, quality controlled and analyzed using Zalicus software.
The measure of effect in the experiment can be the inhibition of cellular response relative to the untreated level (vehicle alone). […] The inhibition ranges from 0% at the untreated level to 100% when T=0. Inhibition levels are negative for agents that actually increase levels.
(§2) Growth Inhibition (GI) is used as a measure of cell viability. […] A GI reading of 100% represents complete growth inhibition—T72 compound-treated and T0 vehicle signals are matched. […] A GI reading of 200% represents complete death of all cells in the culture well. Compounds reaching an activity plateau of GI 200% are considered cytotoxic. GI is calculated by applying the following test and equation:
(§3) Combination analysis data were collected in a 6×6 dose matrix. Synergy is calculated by comparing a combination's response to those of its single compound, against the drug-with-itself dose-additive reference model. Deviations from dose additivity may be assessed visually on an isobologram or numerically with a Combination Index (CI). […] Additive effect is CI=1.0. […] Antagonistic effect is CI>1.0.
(§4) To measure combination effects in excess of Loewe additivity, a scalar measure to characterize the strength of synergistic interaction termed the Synergy Score is devised. The Synergy Score is calculated as:
(§5) The fractional inhibition for each component agent and combination point in the matrix is calculated relative to the median of all vehicle-treated control wells. The Synergy Score equation integrates the experimentally-observed activity volume at each point in the matrix in excess of a model surface numerically derived from the activity of the component agents using the Loewe model for additivity. Additional terms in the Synergy Score equation (above) are used to normalize for various dilution factors used for individual agents and to allow for comparison of synergy scores across an entire experiment. The inclusion of positive inhibition gating or an Idata multiplier removes noise near the zero effect level, and biases results for synergistic interactions at that occur at high activity levels.
Loewe Volume (Loewe Vol) is used to assess the overall magnitude of the combination interaction in excess of the Loewe additivity model. Loewe Volume is particularly useful when distinguishing synergistic increases in a phenotypic activity (positive Loewe Volume) versus synergistic antagonisms (negative Loewe Volume). […] This model defines additivity as a non-synergistic combination interaction where the combination dose matrix surface should be indistinguishable from either drug crossed with itself. The calculation for Loewe additivity is:

[8] = system: TMD8; details: TMD8
[9] = system: KARPAS-299; details: combination with Compound 1
Protocol: as §1
where T is treated cell count and V is untreated (vehicle) cell count (at 72 hours). I ranges from 0% (when T=V) to 100% (when T=0). […] The measure of effect in the experiment can be the inhibition of cellular response relative to the untreated level (vehicle alone). […] The inhibition ranges from 0% at the untreated level to 100% when T=0. Inhibition levels are negative for agents that actually increase levels. Other effect measures, such as an activity ratio r=T/V may be more appropriate for some assays. When activity ratios (e.g, fold increase over stimulated control) are being used, the effect can be measured using an induction 1=ln(T/V). With this definition, all effect expressions are the same as for inhibition.
as §2, §3, §4, §5
Loewe Volume (Loewe Vol) is used to assess the overall magnitude of the combination interaction in excess of the Loewe additivity model. Loewe Volume is particularly useful when distinguishing synergistic increases in a phenotypic activity (positive Loewe Volume) versus synergistic antagonisms (negative Loewe Volume). […] This model defines additivity as a non-synergistic combination interaction where the combination dose matrix surface should be indistinguishable from either drug crossed with itself.

[10] = system: SU-DHL-4-epst; details: combination with Compound 1, 72 h
[11] = combination with CAL-101, Example 2
[12] = combination with Cmpd 1, Example 2
[13] = combination with Compound 1, 72 h

C[C@@H]1C[C@H]2[C@@H]3CCC4=CC(=O)C=C[C@]4(C)[C@@]3(F)[C@@H](O)C[C@]2(C)[C@@]1(O)C(=O)CO [dexamethasone, (8S,9R,10S,11S,13S,14S,16R,17R)-9-Fluoro-11,17-dihydroxy-17-(2-hydroxyacetyl)-10,13,16-trimethyl-6,7,8,9,10,11,12,13,14,15,16,17-dodecahydro-3H-cyclopenta[a]phenanthren-3-one]
A3 (A3=>3): Synergy Score growth inhibition [1] | Synergy Score inhibition [1] | Synergy Score growth inhibition [2] | Synergy Score growth inhibition [3] | Synergy Score inhibition [3] | Synergy Score growth inhibition [4, 12] | Synergy Score growth inhibition [4, 13] | Synergy Score growth inhibition [5, 13] | Synergy Score growth inhibition [6] | Synergy Score growth inhibition [7] | Synergy Score inhibition [7] | Synergy Score growth inhibition [8, 11] | Synergy Score inhibition [8, 11] | Synergy Score growth inhibition [8, 12] | Synergy Score inhibition [8, 12] | Synergy Score growth inhibition [8, 13] | Synergy Score inhibition [8, 13] | Synergy Score growth inhibition [10] | Synergy Score inhibition [10]
T (T=0.5 to <0.7): CI50 inhibition [3] | CI50 growth inhibition [5, 11] | CI50 growth inhibition [5, 12] | CI50 growth inhibition [8, 12] | CI50 growth inhibition [10] | CI50 inhibition [10]
S (S=0.01 to <0.5): CI50 growth inhibition [1] | CI50 inhibition [1] | CI50 growth inhibition [2] | CI50 inhibition [2] | CI50 growth inhibition [4, 11] | CI50 inhibition [4, 11] | CI50 growth inhibition [4, 12] | CI50 inhibition [4, 12] | CI50 growth inhibition [4, 13] | CI50 inhibition [4, 13] | CI50 inhibition [5, 11] | CI50 growth inhibition [5, 13] | CI50 growth inhibition [6] | CI50 growth inhibition [7] | CI50 inhibition [7] | CI50 growth inhibition [8, 11] | CI50 inhibition [8, 11] | CI50 inhibition [8, 12] | CI50 inhibition [8, 13]
U (U=0.7 to <1): CI50 growth inhibition [3] | CI50 inhibition [5, 12] | CI50 inhibition [5, 13] | CI50 inhibition [6] | CI50 growth inhibition [8, 13]
A1 (A1=0.0001 to <1): Synergy Score growth inhibition [9] | Synergy Score inhibition [9]
A2 (A2=1 to <3): Synergy Score inhibition [2] | Synergy Score growth inhibition [4, 11] | Synergy Score inhibition [4, 11] | Synergy Score inhibition [4, 12] | Synergy Score inhibition [4, 13] | Synergy Score growth inhibition [5, 11] | Synergy Score inhibition [5, 11] | Synergy Score growth inhibition [5, 12] | Synergy Score inhibition [5, 12] | Synergy Score inhibition [5, 13] | Synergy Score inhibition [6]
